According to US6964870B2, “Enhanced selection of genetically modified pine embryogenic tissue” (MeadWestvaco Corporation, priority 2000, dated 2005):

Columns and labels:
[1] = system: loblolly pine cell lines or hybrid cell lines; assay: ABA in culture media during and after co-cultivation with Agrobacterium, all lines (Example 4); assay type: cell-based
Excerpt: Seven loblolly pine cell lines or hybrid cell lines from seven widely diverse genetic backgrounds were used in this experiment. To prepare for gene transfer using Agrobacterium, fabric supports were sterilized by autoclaving and placed in a sterile Buchner funnel, and one to five milliliters of embryogenic suspension was pipetted onto each support such that the embryogenic tissue was evenly distributed over its surface. Following this the liquid medium was suctioned from the tissues and each support bearing the embryogenic tissue was placed on gelled medium for inoculation by Agrobacterium. In this case the medium used was the same as the preparation medium described in Example 1 above, except that the medium, used here for preparation and co-cultivation of the cells, contained ABA at 0, 10, or 30 mg/L as an experimental condition. Genes were then introduced into the plant material by co-cultivation with Agrobacterium(Wenck et al. 1999). Specifically, gene constructs containing a reporter gene and a selectable marker were introduced into Agrobacterium tumefaciens strain EHA105 with the virulence-enhancing plasmid pTOK47 (Wenck et al. 1999), by techniques well known to those skilled in the art, and virulence was then induced with administration of acetosyringone by commonly used techniques, well known to those skilled in the art, whereupon the induced Agrobacterium was dripped over the plant material and these were co-cultivated in the dark at 23°±2° C. for approximately 24-72 hours. Those skilled in the art recognize that many different gene constructs, plasmids, strains, media, and co-cultivation times and protocols would be suitable for use in the present method.
Supports bearing approximately 0.1 g of embryogenic tissue were divided onto recovery media (having the same formulation as the maintenance medium except for the addition of 400 mg/L TIMENTIN® antibiotic) either containing or lacking ABA. […] Concentrations of ABA used in all these media were 0, 10, and 30 mg/l.
Cells were maintained on the selection media, with transfer of the polyester support membranes to fresh selection media of the same composition, every two weeks for a total of eight weeks of selection. Cells from actively growing sublines from selection were examined using stereomicroscopes for the expression of the visual marker gene uidA at the conclusion of the selection period. All of the sublines capable of active growth on selection medium were seen to express levels of the visual marker gene product that enabled them to be readily distinguished from non-selected cells. This continuing expression of the transgenes after at least twelve weeks following bombardment confirmed the integration of the transgenes in these sublines. […]

[2] = system: precotyledonary embryos of loblolly pine or hybrid cell lines; assay: Bombardment of precotyledonary embryos on preparation medium with high ABA (Example 3); assay type: cell-based; conditions: preparation medium for bombardment with 125 mg/L ABA; lines of cross 7-56×9-6 and others incl. interspecific hybrids
Procedure: For transformation in this example, the tissue was bombarded using conditions described in Example 1 except that the tissue had been plated on MSG2 medium containing 125 mg/L ABA and 70 g/L PEG 3-8 weeks previously, instead of on medium DCR3 one day previously, so that the experimental treatment consisted of precotyledonary embryos at various stages of development. Following DNA transfer, visible pre-stage 3 embryos were dissected from the bombarded tissues and placed individually onto DCR2 as described above for secondary proliferation.
Following a period of one to 14 days, when a preponderance of pre-stage 3 embryos dissected from the bombarded tissue could be seen to be beginning to proliferate secondary embryogenic cell masses, samples to be assayed for transformation were transferred to a selection medium identical to DCR2 except that it contained […] to initiate secondary embryogenesis. Samples of isolated pre-stage 3 embryos from each line and the secondary tissue proliferating from them were also cultured on DCR2 maintenance media without selection agent to observe any effect of the bombardment treatment on proliferation. These cultures were transferred to fresh maintenance media every three weeks. Proliferation of these non-selected controls at nine weeks after dissection is recorded in Table 4. […]

For `CC1=CC(=O)CC(C)(C)[C@@]1(O)/C=C/C(C)=C\C(=O)O` [ABA, abscisic acid], the “necrotic foci in somatic embryogenic masses” value ([1]; 10 or 30 mg/L ABA during and after co-cultivation with Agrobacterium vs media without ABA, all lines) was “fewer necrotic foci”, the “effect on observation of transformants” value ([1]; 10 or 30 mg/l ABA in the preparation medium) was “neutral or beneficial” and the “doubling of somatic embryogenic masses” value ([1]; ABA in recovery medium after co-cultivation with Agrobacterium vs no ABA, certain P. taeda lines and hybrids) was “able to double more rapidly”. For the same molecule, the “effect on observation of transformants” value ([1]; ABA in the recovery medium) was “similarly neutral or beneficial” and the frequency of transformants [2] was “surprisingly high frequency of transformants”.
